The target of assay [1] is T1, Serine/threonine-protein kinase D1 (Homo sapiens) (UniProt Q15139).
T1 sequence (whole entry): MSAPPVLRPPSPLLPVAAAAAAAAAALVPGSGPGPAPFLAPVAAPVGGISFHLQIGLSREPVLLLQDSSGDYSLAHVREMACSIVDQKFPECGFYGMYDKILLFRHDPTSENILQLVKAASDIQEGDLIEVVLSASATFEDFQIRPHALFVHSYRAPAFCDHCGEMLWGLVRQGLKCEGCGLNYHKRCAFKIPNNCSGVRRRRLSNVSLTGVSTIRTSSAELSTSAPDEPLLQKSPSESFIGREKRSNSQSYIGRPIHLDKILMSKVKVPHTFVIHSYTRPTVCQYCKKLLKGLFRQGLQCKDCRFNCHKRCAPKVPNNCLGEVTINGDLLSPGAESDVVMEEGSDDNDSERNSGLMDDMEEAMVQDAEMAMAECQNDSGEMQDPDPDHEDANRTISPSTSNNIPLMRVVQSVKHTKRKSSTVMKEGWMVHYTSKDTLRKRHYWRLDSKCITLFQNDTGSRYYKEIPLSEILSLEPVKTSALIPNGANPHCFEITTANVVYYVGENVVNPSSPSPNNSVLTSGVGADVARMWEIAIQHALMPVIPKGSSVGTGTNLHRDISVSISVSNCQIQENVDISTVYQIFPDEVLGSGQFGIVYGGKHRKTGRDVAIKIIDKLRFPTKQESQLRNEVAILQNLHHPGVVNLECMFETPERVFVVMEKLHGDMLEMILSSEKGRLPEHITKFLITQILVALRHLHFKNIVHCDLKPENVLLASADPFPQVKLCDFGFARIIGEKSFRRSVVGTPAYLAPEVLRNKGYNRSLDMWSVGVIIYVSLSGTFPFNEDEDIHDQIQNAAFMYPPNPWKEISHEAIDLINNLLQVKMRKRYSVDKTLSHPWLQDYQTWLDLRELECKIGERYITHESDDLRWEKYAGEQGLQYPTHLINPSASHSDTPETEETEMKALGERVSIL
As to the kind of experiment: Inhibition of PKD1 at 1 uM relative to control.

The target of assay [2] is Serine/threonine-protein kinase Nek6 (Homo sapiens) (UniProt Q9HC98). Description: Inhibition of NEK6 at 1 uM relative to control.
Assay [3] deals with Ribosomal protein S6 kinase alpha-1 (Homo sapiens) (UniProt Q15418). Description: Inhibition of RSK1 at 1 uM relative to control.
Assay [4] concerns the target Serine/threonine-protein kinase PLK1 (Homo sapiens) (UniProt P53350). Description: Inhibition of okadaic acid activated PLK1 at 1 uM relative to control.
The target of assay [5] is Homeodomain-interacting protein kinase 2 (Homo sapiens) (UniProt Q9H2X6). As to the kind of experiment: Inhibition of HIPK2 at 1 uM relative to control.
In assay [6] the target is Ribosomal protein S6 kinase alpha-5 (Homo sapiens) (UniProt O75582). Description: Inhibition of MSK1 at 1 uM relative to control.
For assay [7], the target named is Serine/threonine-protein kinase PAK 4 (Homo sapiens) (UniProt O96013). Description: Inhibition of PAK4 at 1 uM relative to control.
Assay [8] deals with Serine/threonine-protein kinase Nek7 (Homo sapiens) (UniProt Q8TDX7). As to the kind of experiment: Inhibition of NEK7 at 1 uM relative to control.
Assay [9] deals with T2, Mitogen-activated protein kinase 12 (Homo sapiens) (UniProt P53778).
T2 sequence (whole entry): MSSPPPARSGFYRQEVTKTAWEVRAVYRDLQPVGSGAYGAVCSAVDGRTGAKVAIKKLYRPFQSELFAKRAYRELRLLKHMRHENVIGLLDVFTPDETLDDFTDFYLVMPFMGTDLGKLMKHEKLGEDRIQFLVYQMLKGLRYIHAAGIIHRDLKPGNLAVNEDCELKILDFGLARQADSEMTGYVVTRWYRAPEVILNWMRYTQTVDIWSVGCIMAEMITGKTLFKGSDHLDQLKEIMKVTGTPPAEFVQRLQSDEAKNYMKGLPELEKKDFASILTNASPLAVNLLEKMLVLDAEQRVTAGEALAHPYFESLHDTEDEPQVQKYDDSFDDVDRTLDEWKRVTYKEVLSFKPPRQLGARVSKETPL
Description: Inhibition of p38-gamma at 1 uM relative to control.

For assay [10], the target named is MAP kinase-interacting serine/threonine-protein kinase 2 (Homo sapiens) (UniProt Q9HBH9). As to the kind of experiment: Inhibition of MNK2 at 1 uM relative to control.
Assay [11] concerns the target Dual specificity mitogen-activated protein kinase kinase 1 (Homo sapiens) (UniProt Q02750). As to the kind of experiment: Inhibition of MKK1 at 1 uM relative to control.
Assay [12] addresses Tyrosine-protein kinase Lck (Homo sapiens) (UniProt P06239). As to the kind of experiment: Inhibition of Lck at 1 uM relative to control.
Assay [13] deals with Cyclin-dependent kinase 2 (Homo sapiens) (UniProt P24941). As to the kind of experiment: Inhibition of CDK2/cyclin A at 1 uM relative to control.
The target of assay [14] is Mitogen-activated protein kinase 3 (Homo sapiens) (UniProt P27361). As to the kind of experiment: Inhibition of ERK1 at 1 uM relative to control.
The target in assay [15] is Mitogen-activated protein kinase 10 (Homo sapiens) (UniProt P53779). As to the kind of experiment: Inhibition of JNK3 at 1 uM relative to control.
For assay [16], the target named is Calcium/calmodulin-dependent protein kinase type 1 (Homo sapiens) (UniProt Q14012). As to the kind of experiment: Inhibition of CAMK1 at 1 uM relative to control.
The target of assay [17] is Rho-associated protein kinase 2 (Homo sapiens) (UniProt O75116). Description: Inhibition of ROCK2 at 1 uM relative to control.
Assay [18] deals with T3, Serine/threonine-protein kinase 3 (Homo sapiens) (UniProt Q13188).
T3 sequence (whole entry): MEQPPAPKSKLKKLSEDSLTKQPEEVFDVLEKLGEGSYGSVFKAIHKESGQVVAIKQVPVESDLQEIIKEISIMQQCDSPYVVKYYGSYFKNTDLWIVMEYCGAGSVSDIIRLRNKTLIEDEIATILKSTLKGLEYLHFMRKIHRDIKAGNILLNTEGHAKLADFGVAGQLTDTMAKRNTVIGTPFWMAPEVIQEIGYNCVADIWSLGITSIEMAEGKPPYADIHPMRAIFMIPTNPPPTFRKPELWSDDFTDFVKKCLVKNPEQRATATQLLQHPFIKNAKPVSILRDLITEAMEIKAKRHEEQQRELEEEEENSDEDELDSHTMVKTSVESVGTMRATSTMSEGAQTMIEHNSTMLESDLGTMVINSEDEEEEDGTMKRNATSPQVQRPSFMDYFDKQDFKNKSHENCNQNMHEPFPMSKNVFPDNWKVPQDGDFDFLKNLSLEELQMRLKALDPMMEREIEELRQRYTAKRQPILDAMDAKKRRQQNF
As to the kind of experiment: Inhibition of MST2 at 1 uM relative to control.

These results are taken from ChEMBL document CHEMBL1136991, “Novel potent BRAF inhibitors: toward 1 nM compounds through optimization of the central phenyl ring” (J Med Chem, 2009).

Bounds are passed on as bounds.

Sequence of Serine/threonine-protein kinase PAK 4 (Homo sapiens) (O96013 whole entry, looked up): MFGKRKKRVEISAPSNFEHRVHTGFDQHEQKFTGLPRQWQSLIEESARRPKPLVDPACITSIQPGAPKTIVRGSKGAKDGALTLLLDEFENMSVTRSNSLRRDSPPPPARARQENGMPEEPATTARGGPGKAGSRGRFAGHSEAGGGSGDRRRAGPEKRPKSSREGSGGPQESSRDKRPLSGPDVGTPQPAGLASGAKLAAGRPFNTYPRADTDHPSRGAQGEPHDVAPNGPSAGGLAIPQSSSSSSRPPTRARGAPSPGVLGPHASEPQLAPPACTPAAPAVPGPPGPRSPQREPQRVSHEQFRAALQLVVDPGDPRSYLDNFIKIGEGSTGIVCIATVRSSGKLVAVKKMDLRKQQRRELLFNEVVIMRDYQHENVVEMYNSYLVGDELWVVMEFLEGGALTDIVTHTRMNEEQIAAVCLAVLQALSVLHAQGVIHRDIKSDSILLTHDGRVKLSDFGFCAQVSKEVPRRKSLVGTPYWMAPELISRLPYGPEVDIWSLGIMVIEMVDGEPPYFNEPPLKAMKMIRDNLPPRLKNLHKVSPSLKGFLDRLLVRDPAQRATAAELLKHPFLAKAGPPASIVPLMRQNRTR
Sequence of Mitogen-activated protein kinase 10 (Homo sapiens) (P53779 whole entry): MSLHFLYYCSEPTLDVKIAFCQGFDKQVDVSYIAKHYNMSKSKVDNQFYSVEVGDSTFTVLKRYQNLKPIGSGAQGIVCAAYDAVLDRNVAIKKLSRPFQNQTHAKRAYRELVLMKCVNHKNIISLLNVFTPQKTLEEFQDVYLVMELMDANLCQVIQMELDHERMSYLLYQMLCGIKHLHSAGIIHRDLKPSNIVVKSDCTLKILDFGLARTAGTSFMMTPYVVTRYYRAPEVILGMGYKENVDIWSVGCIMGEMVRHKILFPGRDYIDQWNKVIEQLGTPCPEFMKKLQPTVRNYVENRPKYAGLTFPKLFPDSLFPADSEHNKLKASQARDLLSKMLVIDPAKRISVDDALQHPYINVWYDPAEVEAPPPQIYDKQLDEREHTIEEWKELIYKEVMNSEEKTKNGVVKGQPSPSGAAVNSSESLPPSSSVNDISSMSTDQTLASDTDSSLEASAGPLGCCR
Sequence of Rho-associated protein kinase 2 (Homo sapiens) (O75116 whole entry, looked up): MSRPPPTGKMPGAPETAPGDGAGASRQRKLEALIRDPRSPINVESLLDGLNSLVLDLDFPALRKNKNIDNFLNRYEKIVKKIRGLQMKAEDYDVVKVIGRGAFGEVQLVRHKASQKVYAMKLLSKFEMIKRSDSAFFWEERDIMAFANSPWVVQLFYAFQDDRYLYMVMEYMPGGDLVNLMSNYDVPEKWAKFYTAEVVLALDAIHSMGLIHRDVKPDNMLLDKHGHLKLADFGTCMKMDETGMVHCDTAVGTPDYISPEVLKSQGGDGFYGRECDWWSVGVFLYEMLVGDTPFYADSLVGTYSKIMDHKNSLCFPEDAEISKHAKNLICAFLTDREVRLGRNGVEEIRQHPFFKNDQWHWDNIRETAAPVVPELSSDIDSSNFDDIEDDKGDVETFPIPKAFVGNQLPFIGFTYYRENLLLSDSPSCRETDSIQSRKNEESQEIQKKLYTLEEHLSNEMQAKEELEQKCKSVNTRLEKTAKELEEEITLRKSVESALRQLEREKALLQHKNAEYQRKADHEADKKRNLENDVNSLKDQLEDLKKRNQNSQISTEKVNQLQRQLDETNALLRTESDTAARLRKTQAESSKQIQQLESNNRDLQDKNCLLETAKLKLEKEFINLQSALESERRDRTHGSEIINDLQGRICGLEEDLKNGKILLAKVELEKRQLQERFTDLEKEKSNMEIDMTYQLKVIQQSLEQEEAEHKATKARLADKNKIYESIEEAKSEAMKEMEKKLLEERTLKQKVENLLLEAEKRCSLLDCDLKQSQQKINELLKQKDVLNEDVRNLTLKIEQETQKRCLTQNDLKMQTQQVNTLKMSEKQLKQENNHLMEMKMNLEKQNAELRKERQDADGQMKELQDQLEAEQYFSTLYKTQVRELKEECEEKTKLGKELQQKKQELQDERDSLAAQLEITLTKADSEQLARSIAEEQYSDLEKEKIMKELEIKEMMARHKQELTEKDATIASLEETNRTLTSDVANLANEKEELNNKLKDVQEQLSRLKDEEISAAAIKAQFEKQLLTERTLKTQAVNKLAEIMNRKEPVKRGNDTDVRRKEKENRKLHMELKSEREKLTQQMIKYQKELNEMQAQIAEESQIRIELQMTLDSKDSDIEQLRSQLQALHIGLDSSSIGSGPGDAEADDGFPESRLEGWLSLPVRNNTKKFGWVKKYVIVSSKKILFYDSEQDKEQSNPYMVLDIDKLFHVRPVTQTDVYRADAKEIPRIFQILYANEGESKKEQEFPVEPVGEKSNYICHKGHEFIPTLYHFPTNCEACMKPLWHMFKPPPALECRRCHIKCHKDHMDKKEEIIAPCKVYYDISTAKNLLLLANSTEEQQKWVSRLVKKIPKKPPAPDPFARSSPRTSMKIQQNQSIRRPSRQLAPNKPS
Sequence of Ribosomal protein S6 kinase alpha-5 (Homo sapiens) (O75582 whole entry, looked up): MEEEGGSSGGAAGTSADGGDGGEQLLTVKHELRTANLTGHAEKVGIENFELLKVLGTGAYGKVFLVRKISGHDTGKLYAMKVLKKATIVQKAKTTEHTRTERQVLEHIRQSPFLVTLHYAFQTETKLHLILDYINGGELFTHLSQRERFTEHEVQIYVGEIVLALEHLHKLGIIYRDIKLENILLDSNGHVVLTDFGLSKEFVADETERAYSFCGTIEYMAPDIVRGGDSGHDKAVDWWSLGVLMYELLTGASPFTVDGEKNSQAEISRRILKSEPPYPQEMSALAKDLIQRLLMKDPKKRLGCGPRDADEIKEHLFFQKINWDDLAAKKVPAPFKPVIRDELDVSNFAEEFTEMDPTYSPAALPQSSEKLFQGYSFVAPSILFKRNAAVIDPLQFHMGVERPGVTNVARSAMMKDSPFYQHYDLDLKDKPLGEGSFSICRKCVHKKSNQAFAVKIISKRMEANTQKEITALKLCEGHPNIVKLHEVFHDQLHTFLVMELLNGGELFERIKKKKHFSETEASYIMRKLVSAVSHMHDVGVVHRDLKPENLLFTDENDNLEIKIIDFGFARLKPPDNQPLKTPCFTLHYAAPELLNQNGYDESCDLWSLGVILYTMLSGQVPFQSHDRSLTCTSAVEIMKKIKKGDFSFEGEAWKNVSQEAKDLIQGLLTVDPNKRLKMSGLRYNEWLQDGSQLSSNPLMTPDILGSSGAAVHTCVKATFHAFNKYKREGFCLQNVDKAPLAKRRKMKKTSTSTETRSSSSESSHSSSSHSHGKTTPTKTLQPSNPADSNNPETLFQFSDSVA
Sequence of Mitogen-activated protein kinase 3 (Homo sapiens) (P27361 whole entry): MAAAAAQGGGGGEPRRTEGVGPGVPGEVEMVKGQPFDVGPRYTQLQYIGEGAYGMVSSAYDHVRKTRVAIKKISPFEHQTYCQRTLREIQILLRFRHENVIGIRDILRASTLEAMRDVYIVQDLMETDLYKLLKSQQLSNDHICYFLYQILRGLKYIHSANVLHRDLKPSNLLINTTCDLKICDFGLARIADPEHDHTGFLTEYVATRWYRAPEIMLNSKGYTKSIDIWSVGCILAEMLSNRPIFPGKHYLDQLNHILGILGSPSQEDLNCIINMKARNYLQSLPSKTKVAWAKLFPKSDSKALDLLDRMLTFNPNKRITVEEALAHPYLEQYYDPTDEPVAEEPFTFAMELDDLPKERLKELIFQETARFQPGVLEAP
Sequence of Tyrosine-protein kinase Lck (Homo sapiens) (P06239 2-509 limits assumed): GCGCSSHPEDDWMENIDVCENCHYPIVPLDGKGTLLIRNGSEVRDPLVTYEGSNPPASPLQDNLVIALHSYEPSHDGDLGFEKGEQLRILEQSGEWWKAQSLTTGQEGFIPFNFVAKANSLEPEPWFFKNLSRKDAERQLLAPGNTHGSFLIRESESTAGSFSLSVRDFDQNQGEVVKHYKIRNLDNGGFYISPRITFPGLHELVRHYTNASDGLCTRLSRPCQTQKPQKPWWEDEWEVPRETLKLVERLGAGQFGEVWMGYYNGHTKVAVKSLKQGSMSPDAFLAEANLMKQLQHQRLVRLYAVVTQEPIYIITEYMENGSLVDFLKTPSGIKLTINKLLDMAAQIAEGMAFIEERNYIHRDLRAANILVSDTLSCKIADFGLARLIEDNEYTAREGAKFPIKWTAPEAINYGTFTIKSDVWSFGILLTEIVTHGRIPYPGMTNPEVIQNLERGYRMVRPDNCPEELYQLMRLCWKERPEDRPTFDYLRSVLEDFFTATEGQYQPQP
Sequence of Dual specificity mitogen-activated protein kinase kinase 1 (Homo sapiens) (Q02750 whole entry): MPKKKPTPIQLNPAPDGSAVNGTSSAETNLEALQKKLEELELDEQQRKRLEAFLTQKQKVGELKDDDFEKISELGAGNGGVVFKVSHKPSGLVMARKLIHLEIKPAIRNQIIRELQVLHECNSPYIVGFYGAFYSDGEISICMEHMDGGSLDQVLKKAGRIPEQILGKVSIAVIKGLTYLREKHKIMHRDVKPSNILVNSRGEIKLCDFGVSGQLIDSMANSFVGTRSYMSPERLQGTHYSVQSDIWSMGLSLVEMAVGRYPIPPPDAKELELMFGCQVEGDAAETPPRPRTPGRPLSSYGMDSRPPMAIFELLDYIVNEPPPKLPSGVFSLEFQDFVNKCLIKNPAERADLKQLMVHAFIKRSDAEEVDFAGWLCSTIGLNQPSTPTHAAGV
Sequence of Calcium/calmodulin-dependent protein kinase type 1 (Homo sapiens) (Q14012 whole entry, looked up): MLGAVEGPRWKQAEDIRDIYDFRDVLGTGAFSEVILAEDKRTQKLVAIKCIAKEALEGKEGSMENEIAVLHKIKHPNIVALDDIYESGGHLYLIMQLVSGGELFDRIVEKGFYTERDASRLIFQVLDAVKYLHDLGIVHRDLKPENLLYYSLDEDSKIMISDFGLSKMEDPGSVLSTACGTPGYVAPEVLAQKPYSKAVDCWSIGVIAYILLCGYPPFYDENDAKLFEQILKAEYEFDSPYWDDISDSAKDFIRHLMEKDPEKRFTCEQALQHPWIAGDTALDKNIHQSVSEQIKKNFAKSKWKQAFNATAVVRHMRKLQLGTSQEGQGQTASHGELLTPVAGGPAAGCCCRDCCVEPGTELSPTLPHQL

Regarding `O=C(Nc1cc(C(F)(F)F)ccc1F)Nc1ccc(Oc2ccnc3[nH]c(=O)[nH]c23)c2ccccc12`, the residual activity is 75% in assay [1]; 100% in assay [2]; 75% in assay [3]; 100% in assay [4]; 100% in assay [5]; 75% in [6]. Further, the residual activity in [7] was 75%; in [8], 100%; in assay [9], 50%; in assay [10], 100%; in [11], 100%; in assay [12], below 25%. The residual activity was 100% in assay [13]; 100% in assay [14]; 100% in assay [15]; below 25% in assay [16]; 75% in assay [17]; 100% in assay [18].

Regarding `CC(C)(C)c1cccc(NC(=O)Nc2ccc(Oc3ccnc4[nH]c(=O)[nH]c34)c3ccccc23)c1`, the residual activity in [1], in assay [2], in assay [3], in assay [4], in assay [5] and in assay [6] was 75% each time. Also, the residual activity in assay [7] is 75%; in [8] it was 75%; in [9], below 25%; in assay [10] it was 100%; in [11], 75%; in assay [12], below 25%. Also, the residual activity in [13] is 100%; in assay [14] it was 100%; in [15] it was 75%; in [16], 75%; in [17], 75%; in [18], 75%.

As for `CSc1cc(Oc2ccnc3[nH]c(=O)[nH]c23)ccc1NC(=O)Nc1cccc(C(F)(F)F)c1`, the residual activity in [1] was 75%; in assay [2] it was 100%; in [3] it was 100%; in [4], 100%; in [5] it was 75%; in assay [6] it was 100%. In addition, the residual activity in assay [7] was 75%; in assay [8], 100%; in assay [9], 50%; in [10] it was 100%; in assay [11], 100%; in assay [12], below 25%. Further, the residual activity in assay [13] is 100%; in assay [14], 100%; in [15] it was 100%; in assay [16], below 25%; in assay [17], 75%; in assay [18], 75%.
